Measurements: the NIST ThermoML archive (doi:10.1021/je034290l)

Assays:
[1] = xn = mol fraction of the nth substance listed; settings: 101.32 kPa, Liquid
[2] = excess molar enthalpy (molar enthalpy of mixing); xn = mol fraction of the nth substance listed; settings: 101.32 kPa, Liquid, Calvet calorimetry

CCCC(=O)OC [methyl butanoate] + CC(C)(C)O
Settings | excess molar enthalpy [kcal/mol] | excess molar volume [m3/mol]
[1], 303.15 K, x1 = 0.0628 | – | 1.6e-07
[1], 303.15 K, x1 = 0.0928 | – | 2.36e-07
[1], 303.15 K, x1 = 0.1566 | – | 3.68e-07
[1], 303.15 K, x1 = 0.194 | – | 4.3e-07
[1], 303.15 K, x1 = 0.2507 | – | 5.07e-07
[1], 303.15 K, x1 = 0.3088 | – | 5.69e-07
[1], 303.15 K, x1 = 0.3502 | – | 6.04e-07
[1], 303.15 K, x1 = 0.3916 | – | 6.3e-07
[1], 303.15 K, x1 = 0.453 | – | 6.49e-07
[1], 303.15 K, x1 = 0.5059 | – | 6.51e-07
[1], 303.15 K, x1 = 0.5463 | – | 6.4e-07
[1], 303.15 K, x1 = 0.6022 | – | 6.17e-07
[1], 303.15 K, x1 = 0.6588 | – | 5.71e-07
[1], 303.15 K, x1 = 0.698 | – | 5.37e-07
[1], 303.15 K, x1 = 0.7527 | – | 4.73e-07
[1], 303.15 K, x1 = 0.7928 | – | 4.2e-07
[1], 303.15 K, x1 = 0.851 | – | 3.21e-07
[1], 303.15 K, x1 = 0.9115 | – | 2.06e-07
[1], 303.15 K, x1 = 0.942 | – | 1.4e-07
[1], 318.15 K, x1 = 0.1079 | – | 2.35e-07
[1], 318.15 K, x1 = 0.1326 | – | 2.91e-07
[1], 318.15 K, x1 = 0.1749 | – | 3.68e-07
[1], 318.15 K, x1 = 0.2201 | – | 4.34e-07
[1], 318.15 K, x1 = 0.2751 | – | 5.03e-07
[1], 318.15 K, x1 = 0.3257 | – | 5.54e-07
[1], 318.15 K, x1 = 0.3949 | – | 6.05e-07
[1], 318.15 K, x1 = 0.4521 | – | 6.3e-07
[1], 318.15 K, x1 = 0.4783 | – | 6.36e-07
[1], 318.15 K, x1 = 0.55 | – | 6.31e-07
[1], 318.15 K, x1 = 0.5996 | – | 6.16e-07
[1], 318.15 K, x1 = 0.6675 | – | 5.74e-07
[1], 318.15 K, x1 = 0.7318 | – | 5.24e-07
[1], 318.15 K, x1 = 0.8163 | – | 4.04e-07
[1], 318.15 K, x1 = 0.8728 | – | 3.17e-07
[2], 299.15 K, x1 = 0.0487 | 0.0783 | –
[2], 299.15 K, x1 = 0.1046 | 0.158 | –
[2], 299.15 K, x1 = 0.1632 | 0.234 | –
[2], 299.15 K, x1 = 0.2233 | 0.299 | –
[2], 299.15 K, x1 = 0.283 | 0.351 | –
[2], 299.15 K, x1 = 0.3383 | 0.389 | –
[2], 299.15 K, x1 = 0.3915 | 0.415 | –
[2], 299.15 K, x1 = 0.4395 | 0.431 | –
[2], 299.15 K, x1 = 0.4853 | 0.439 | –
[2], 299.15 K, x1 = 0.5221 | 0.441 | –
[2], 299.15 K, x1 = 0.5268 | 0.441 | –
[2], 299.15 K, x1 = 0.5545 | 0.439 | –
[2], 299.15 K, x1 = 0.5745 | 0.437 | –
[2], 299.15 K, x1 = 0.636 | 0.417 | –
[2], 299.15 K, x1 = 0.7063 | 0.379 | –
[2], 299.15 K, x1 = 0.778 | 0.323 | –
[2], 299.15 K, x1 = 0.8552 | 0.24 | –
[2], 299.15 K, x1 = 0.9325 | 0.129 | –
[2], 318.15 K, x1 = 0.0458 | 0.0698 | –
[2], 318.15 K, x1 = 0.1 | 0.141 | –
[2], 318.15 K, x1 = 0.1556 | 0.207 | –
[2], 318.15 K, x1 = 0.2136 | 0.274 | –
[2], 318.15 K, x1 = 0.2734 | 0.329 | –
[2], 318.15 K, x1 = 0.3313 | 0.37 | –
[2], 318.15 K, x1 = 0.3854 | 0.401 | –
[2], 318.15 K, x1 = 0.4221 | 0.415 | –
[2], 318.15 K, x1 = 0.4655 | 0.427 | –
[2], 318.15 K, x1 = 0.5127 | 0.431 | –
[2], 318.15 K, x1 = 0.5632 | 0.429 | –
[2], 318.15 K, x1 = 0.6217 | 0.416 | –
[2], 318.15 K, x1 = 0.6845 | 0.388 | –
[2], 318.15 K, x1 = 0.7505 | 0.344 | –
[2], 318.15 K, x1 = 0.8187 | 0.28 | –
[2], 318.15 K, x1 = 0.884 | 0.195 | –
[2], 318.15 K, x1 = 0.9472 | 0.102 | –

COC=O [methyl methanoate] + CC(C)(C)O
299.15 K
Settings | excess molar enthalpy, [2] [kcal/mol] | excess molar volume, [1] [m3/mol]
x1 = 0.0627 | – | 2.95e-07
x1 = 0.0899 | 0.158 | –
x1 = 0.1002 | – | 4.51e-07
x1 = 0.1302 | – | 5.67e-07
x1 = 0.1667 | – | 6.88e-07
x1 = 0.202 | 0.336 | –
x1 = 0.2419 | – | 8.67e-07
x1 = 0.2873 | 0.451 | –
x1 = 0.319 | – | 9.88e-07
x1 = 0.3526 | – | 1.025e-06
x1 = 0.3657 | 0.528 | –
x1 = 0.4033 | – | 1.061e-06
x1 = 0.4323 | 0.57 | –
x1 = 0.4976 | – | 1.068e-06
x1 = 0.5033 | 0.594 | –
x1 = 0.5076 | – | 1.067e-06
x1 = 0.5567 | 0.594 | –
x1 = 0.5726 | – | 1.036e-06
x1 = 0.6017 | 0.581 | –
x1 = 0.6163 | – | 9.94e-07
x1 = 0.6287 | 0.569 | –
x1 = 0.6512 | – | 9.55e-07
x1 = 0.6747 | 0.538 | –
x1 = 0.7222 | 0.491 | 8.68e-07
x1 = 0.7382 | – | 8.34e-07
x1 = 0.7721 | 0.433 | –
x1 = 0.7939 | – | 7.46e-07
x1 = 0.8111 | – | 7.04e-07
x1 = 0.8206 | 0.364 | –
x1 = 0.8697 | 0.282 | –
x1 = 0.8902 | – | 5.01e-07
x1 = 0.9187 | 0.186 | –
x1 = 0.9574 | – | 2.43e-07
x1 = 0.9598 | 0.0997 | –
